# Literature values in patent publication US6352152B1, “Method and package for storing a pressurized container containing a drug” (Smithkline Beecham Corporation, priority 1998, dated 2002).
# Details: Pischtiak 1999, Solvay chemical data sheet
row,maximum water solubility in the propellant,SMILES
1,about 130 ppm,FC(F)(Cl)C(F)(F)Cl [CFC 114]
2,about 2200 ppm,"FCC(F)(F)F [HFC 134a, 1,1,1,2-tetrafluoroethane]"

row,SMILES,maximum water solubility in the propellant
1,FC(F)(Cl)Cl [CFC 12],about 130 ppm
